Data: US10220083B2 (priority 2014, dated 2019)

Assays:
mAb 1H8 [1] = test: Surface plasmon resonance with captured mAb 1H8; type: binding, mouse; details: saccharide 18 at 20 μM, polysaccharides at 10 μg/mL in PBS
Experimental: Surface Plasmon Resonance was performed on a Biacore T100 instrument (GE Healthcare). Analysis was performed using the Mouse Antibody Capture Kit and Amine Coupling Kit (GE Healthcare) for immobilization. About 10000 response units (RU) of capture antibody were immobilized. A commercial mouse IgG (cat. no. 026502, Invitrogen, Carlsbad, US) was immobilized as a dummy in a reference cell (about 10000 RU). About 800 RU of mAb 1H8 were captured prior to every run using a mAb concentration of 50 μg/mL. Runs were performed using PBS as a running buffer and a flow rate of 30 μL/min with 60 s association and 120 s dissociation periods, respectively. Polysaccharides were used at a concentration of 10 μg/mL and saccharide 18 at 20 μM in PBS.

[2] = test system: human pneumococcal reference serum 007sp (pooled sera of humans immunized with Pneumovax); type: binding
mAb 1H8 [3] = type: binding, mouse
mAb 1F1 = type: binding, mouse

SMILES | recognition by mAb 1H8 (surface plasmon resonance) (mAb 1H8 [1]) | interaction with the antiserum from human vaccinated with Pneumovax23 [2] | recognition by antiserum from human vaccinated with Pneumovax23 (007sp) [2] | binding of mAb 1H8 after inhibition with native SP8 polysaccharide (mAb 1H8 [3]) | recognition by mAb 1H8 (mAb 1H8 [3]) | binding of mAb 1F1 after inhibition with native SP8 polysaccharide (mAb 1F1) | recognition by mAb 1F1 (mAb 1F1)
NCCO[C@H]1OC(CO)[C@H](O[C@H]2OC(CO)[C@@H](O[C@@H]3OC(CO)[C@@H](O[C@@H]4OC(C(=O)O)[C@@H](O)[C@H](O)C4O)[C@H](O)C3O)[C@H](O)C2O)[C@H](O)C1O (stereo partly drawn) [saccharide 18, β-D-Glucopyranosyluronic acid-(1→4)β-D-glucoyranosyl-(1→4)-α-D-glucopyranosyl-(1→4)-α-D-galactopyranosyl-(1→1)-(2-amino)ethanol] | specifically recognizes | Robust interactions | recognized | – | – | – | –
NCCO[C@H]1OC(CO)[C@H](O[C@H]2OC(CO)[C@@H](O[C@@H]3OC(CO)[C@@H](O[C@@H]4OC(C(=O)O)[C@@H](O[C@H]5OC(CO)[C@H](O)[C@H](O)C5O)[C@H](O)C4O)[C@H](O)C3O)[C@H](O)C2O)[C@H](O)C1O (stereo partly drawn) [saccharide 55, α-D-galactopyranosyl-(1→4)-β-D-glucopyranosyluronate-(1→4)-β-D-glucoyranosyl-α-D-glucopyranosyl-(1→4)-α-D-galactopyranosyl-(1→1)-(2-amino)ethanol] | – | – | – | abrogated | recognized with similar intensities | abrogated | recognized with similar intensities
NCCO[C@H]1OC(CO)[C@H](O[C@H]2OC(CO)[C@@H](O[C@@H]3OC(CO)[C@@H](O[C@@H]4OC(C(=O)O)[C@@H](O[C@H]5OC(CO)[C@H](O[C@H]6OC(CO)[C@@H](O)[C@H](O)C6O)[C@H](O)C5O)[C@H](O)C4O)[C@H](O)C3O)[C@H](O)C2O)[C@H](O)C1O (stereo partly drawn) [saccharide 57, α-D-glucopyranosyl-(1→4)-α-D-galactopyranosyl-(1→4)-β-D-glucopyranosyluronate-(1→4)-β-D-glucoyranosyl-(1→4)-α-D-glucopyranosyl-(1→4)-α-D-galactopyranosyl-(1→1)-(2-amino)ethanol] | – | – | – | abrogated | recognized with similar intensities | abrogated | recognized with similar intensities
NCCO[C@H]1OC(CO)[C@H](O[C@H]2OC(CO)[C@@H](O[C@@H]3OC(CO)[C@@H](O[C@@H]4OC(CO)[C@@H](O)[C@H](O)C4O)[C@H](O)C3O)[C@H](O)C2O)[C@H](O)C1O (stereo partly drawn) [saccharide 60, β-D-Glucopyranosyl-(1→4)β-D-glucoyranosyl-(1→4)-α-D-glucopyranosyl-(1→4)-α-D-galactopyranosyl-(1→1)-(2-amino)ethanol] | – | – | – | – | recognized with similar intensities | – | recognized with similar intensities
NCCO[C@H]1OC(CO)[C@H](O[C@H]2OC(CO)[C@@H](O[C@@H]3OC(CO)[C@@H](O)[C@H](O)C3O)[C@H](O)C2O)[C@H](O)C1O (stereo partly drawn) [saccharide 62, β-D-Glucoyranosyl-(1→4)-α-D-glucopyranosyl-(1→4)-α-D-galactopyranosyl-(1→1)-(2-amino)ethanol] | – | – | – | – | recognized with similar intensities | – | recognized with similar intensities
